Experimental data taken from patent US11433053B2, “LSD1 inhibitor and preparation method and application thereof” (CSPC ZHONGQI PHARMACEUTICAL TECHNOLOGY (SHIJIAZHUANG) CO., …, priority 2017, dated 2022).

Test system: H1417 cells
Assay: Cell proliferation inhibitory activity on H1417 cells (CellTiter-Glo, 10 days)
Type: cell-based, human
Settings: Homo sapiens; for IC50: NCI-H1417, 240 h, H1417 cells, 10 days incubation; for Emax: NCI-H1417, H1417 cells, highest percentage inhibition of cell viability, read-out: Maximum inhibition percentage (%)
Procedure: Experimental purposes: To test the proliferation inhibitory activities of the test compounds on H1417 cells.
Experimental materials: RPMI 1640 medium, fetal bovine serum, Promega CellTiter-Glo reagent. The H1417 cell line purchased from ATCC. Envision Multi-Label Analyzer (PerkinElmer).
Experimental method: H1417 cells were seeded in a black 384-well plate, 1000 cells per well in […] of cell suspension. The test compounds were diluted 3-fold with Epmotion to the 10th concentration i.e, the compounds were diluted from 10 mmol to […], and a double duplicate well experiment was set. 198 μL medium was added to the middle plate, according to the corresponding position, 2 μL gradient diluted compounds were added to the middle plate. The mixture was mixed evenly and transferred 20 μL per well to the cell plates. The cell plates were incubated in a carbon dioxide incubator for 10 days. 25 μL of Promega CellTiter-Glo reagent per well was added to the cell plate and the mixture was incubated for 10 minutes at room temperature to stabilize the luminescence signal. Readings were performed by PerkinElmer Envision multi-label analyzer.
Data analysis: The original data was converted to the inhibition rate by the equation (Max-Ratio)/(Max-Min)*100%, and the value of IC50 can be obtained by curve fitting with four parameters. (Model 205 in XLFIT5, iDBS)
The growth inhibitory activities of the test compounds on H1417 cells were classified as + for IC50≤100 nM; ++ for IC50>100 nM and ≤500 nM; +++ for IC50>500 nM and ≤1000 nM; the highest percentage inhibition of cell viability was classified as: […]; 90%>B≥70%; 70%>C≥50%.

Structure (SMILES) | IC50 | Emax
Clc1ccc2oc(C3(CN[C@H]4CC4c4ccccc4)CC3)nc2c1 (stereo partly drawn) [Example 47] | 100 to 500 nM | 50 to 70%
c1ccc(C2C[C@@H]2NCC2(CN3CCc4ccncc4C3)CC2)cc1 (stereo partly drawn) [Example 49] | 500 to 1000 nM | 90 to 100%
O=C(O)C1CCN(CC2(CN[C@H]3CC3c3ccccc3)CC2)CC1 (stereo partly drawn) [Example 54] | 500 to 1000 nM | 50 to 70%
FC(F)(F)c1ccc2c(c1)CN(CC1(CN[C@H]3CC3c3ccccc3)CC1)C2 (stereo partly drawn) [Example 55] | 100 to 500 nM | 70 to 90%
O=C(O)c1ccc(C2CCN(CC3(CN[C@H]4CC4c4ccccc4)CC3)CC2)cc1 (stereo partly drawn) [Example 56] | 500 to 1000 nM | 50 to 70%
c1ccc(C2C[C@@H]2NCC2(CN3CCc4ccccc4CC3)CC2)cc1 (stereo partly drawn) [Example 58] | 100 to 500 nM | 70 to 90%
c1ccc(C2C[C@@H]2NCC2(CN3Cc4ccncc4C3)CC2)cc1 (stereo partly drawn) [Example 61] | 500 to 1000 nM | 50 to 70%
O=C(O)C1CCC(c2nc(C3(CN[C@H]4CC4c4ccccc4)CC3)no2)CC1 (stereo partly drawn) [Example 67] | 100 to 500 nM | 50 to 70%
c1ccc(C2C[C@@H]2NCC2(c3nc4ccccc4o3)CC2)cc1 (stereo partly drawn) [Example 76] | 100 to 500 nM | 50 to 70%
FC(F)(F)C1CCN(CC2(CN[C@H]3CC3c3ccccc3)CC2)CC1 (stereo partly drawn) [Example 80] | 100 to 500 nM | 50 to 70%
N#CC1CCN(CC2(CN[C@H]3CC3c3ccccc3)CC2)CC1 (stereo partly drawn) [Example 81] | ≤ 100 nM | 50 to 70%
Clc1ccc(-n2cc(C3(CN[C@H]4CC4c4ccccc4)CC3)nn2)cc1 (stereo partly drawn) [Example 96] | 500 to 1000 nM | 50 to 70%
CC(=O)N1CCC(c2nc(C3(CN[C@H]4CC4c4ccccc4)CC3)no2)CC1 (stereo partly drawn) [Example 105] | 100 to 500 nM | 70 to 90%
CS(=O)(=O)n1cc2c(n1)CN(CC1(CN[C@H]3CC3c3ccccc3)CC1)C2 (stereo partly drawn) [Example 106] | 500 to 1000 nM | 50 to 70%
CN(C)[C@H]1CC[C@H](c2nc(C3(CN[C@H]4CC4c4ccccc4)CC3)no2)CC1 (stereo partly drawn) [Example 108] | 500 to 1000 nM | 70 to 90%
CC1(C)CCN(CC2(CN[C@H]3CC3c3ccccc3)CC2)C1 (stereo partly drawn) [Example 202] | 100 to 500 nM | 70 to 90%
c1ccc(C2C[C@@H]2NCC2(CN3CCC3)CC2)cc1 (stereo partly drawn) [Example 211] | 100 to 500 nM | 50 to 70%
CN1CCC(c2nc(C3(CN[C@H]4CC4c4ccccc4)CC3)no2)CC1=O (stereo partly drawn) [Example 218] | 100 to 500 nM | 70 to 90%

The next lines start with results.

IC50 | Structure (SMILES) | Emax
100 to 500 nM | FC(F)(F)c1ccc2c(c1)CN(CC1(CN[C@H]3CC3c3ccccc3)CC1)CC2 (stereo partly drawn) [Example 51] | 70 to 90%
500 to 1000 nM | O=C(O)c1ccc2c(c1)CN(CC1(CN[C@H]3CC3c3ccccc3)CC1)CC2 (stereo partly drawn) [Example 53] | 90 to 100%
500 to 1000 nM | c1ccc(C2C[C@@H]2NCC2(CN3CCCCc4ccccc43)CC2)cc1 (stereo partly drawn) [Example 60] | 50 to 70%
≤ 100 nM | c1ccc(C2C[C@@H]2NCC2(CN3CCCC3)CC2)cc1 (stereo partly drawn) [Example 77] | 70 to 90%
100 to 500 nM | O=C(O)c1ccc(CN2CCC(c3nc(C4(CN[C@H]5CC5c5ccccc5)CC4)no3)CC2)cc1 (stereo partly drawn) [Example 82] | 50 to 70%
100 to 500 nM | CC1CCN(CC2(CN[C@H]3CC3c3ccccc3)CC2)C1 (stereo partly drawn) [Example 98] | 50 to 70%
500 to 1000 nM | O=C(O)c1ccc2c(c1)CCN(CC1(CN[C@H]3CC3c3ccccc3)CC1)C2 (stereo partly drawn) [Example 101] | 50 to 70%
500 to 1000 nM | O=C(O)c1ccc(N2CCC(c3nc(C4(CN[C@H]5CC5c5ccccc5)CC4)no3)CC2)cc1 (stereo partly drawn) [Example 103] | 50 to 70%
100 to 500 nM | C[C@H]1CCCN1CC1(CN[C@H]2CC2c2ccccc2)CC1 (stereo partly drawn) [Example 212] | 50 to 70%
